Measurements from paper PMC9446078 (Frontiers in Endocrinology, 2022).
Structures can show the parent of a compound that is named as a salt.

What was measured:
[1] = set-up: method as in PMID 2879662, PMID 7957532, PMID 6135794; conditions: approved (intravenous) dose; cited from earlier work
[2] = system: HFF-1 (human dermal fibroblasts); assay: Scratch assay, fibroblast migration under high glucose; assay type: cell-based
Description: (§1) High blood glucose levels hamper the migration of human fibroblasts, endothelial cells, and keratinocytes that impair wound healing ([16]–[20]). […] The detailed protocol and cytotoxicity results are provided in the Supplementary File. An actively growing culture of HFF-1 (human dermal fibroblasts), Ea.hy926 (human endothelial cells), and HaCaT (human keratinocytes) cell lines in Dulbecco’s modified Eagle’s medium containing 25 mM glucose supplemented with 10% fetal bovine serum was prepared. The cells were counted through a hemocytometer and were seeded at a density of 0.08 × 10^6 (HFF-1), 0.1 × 10^6 (Ea.hy926), and 0.2 × 10^6 (HaCaT Cells) cells/well/ml of culture medium. The plates were incubated overnight followed by serum starvation for 24 h. Scratch wounds were made in a confluent monolayer by making a straight scratch in the center of the well using a sterile 200-µl pipette microtip. […] The kinetics of migration of the cells in the wound was recorded by phase-contrast microscopy. The experiment was carried out in duplicate cells for each concentration.

Ea.hy926 cells = assay: MTT cytotoxicity in Ea.hy926; assay type: cell-based, human; conditions: Ea.hy926, all tested concentrations (0.01 to 1000 μM); <30% = non-cytotoxic
Description: (§2) 1. HaCaT, HFF-1 and Ea.hy926 cells were counted and plated in 96 well plates at the density corresponding to 5 X 10^3 cells/well/180 μl of cell growth medium.
(§3) 2. The above cells were then incubated overnight under growth conditions of 37°C, 95 % Humidity, 5 % CO2.so as to allow the cell recovery and exponential growth.
(§4) 3. Following overnight incubation, the above cells were serum starved in DMEM (containing 25 mM glucose) supplemented with […] for 24 h.
(§5) 5. The Ea.hy926 cells were then incubated for 24 h and HaCaT and HFF-1 cells were incubated for 48 h in CO2 incubator at 37 °C, 5 % CO2 and 95 % humidity.
(§6) 6. Following incubation, the plates were taken out and 20 μl of 5 mg/ml of MTT 3-(4,5-dimethythiazol-2-yl)-2,5-diphenyl tetrazolium bromide solution was added to all the wells followed by additional incubation for 3 h at 37 °C. The supernatant was aspirated and 150 μl of DMSO was added to each well to dissolve formazan crystals. The absorbance of each well was then read at 540 nm using Synergy HT micro plate reader.
(§7) 7. The percentage cytotoxicity at each tested concentration was calculated using the following formula:
(§8) % Cytotoxicity = (1-X/R)*100

[3] = MTT cytotoxicity in Ea.hy926; assay type: cell-based, human; conditions: human, Ea.hy926 cells, Ea.hy926, 24 h, read-out: % Cytotoxicity w.r.t. untreated cells
Description: as §2, §3, §4, §5, §6, §7, §8

[4] = molecular target: T1, human recombinant aldose reductase (Homo sapiens, UniProt P15121); assay: Aldose reductase inhibition assay (spectrophotometric, glyceraldehyde substrate); assay type: biochemical; conditions: recombinant enzyme, DL-glyceraldehyde substrate, pH 6.2, 37°C
T1 construct: made in house; host or cells: Escherichia coli
Description: Recombinant human aldose reductase was purified from bacterial cultures. Enzyme from expression cultures was extracted and purified essentially as described previously ([12]) with the exception that affinity chromatography over AffiGel Blue (Bio-Rad) was used as a final purification step.
AR activity was assayed according to the method described in the literature ([13]). The assay mixture in 1 ml contained 50 μM potassium phosphate buffer, pH 6.2, 0.4 mM lithium sulfate, 5 μM 2-mercapto ethanol, 10 μM DL-glyceraldehyde, 0.1 μM NADPH, and enzyme preparation (recombinant enzyme). Appropriate blanks were employed for corrections. The assay mixture was incubated at 37°C and initiated by the addition of NADPH at 37°C. The change in absorbance at 340 nm due to NADPH oxidation was followed in a Cary Bio 100 spectrophotometer.
The percent of inhibition with a test compound was calculated considering that the AR activity in the absence of an inhibitor was 100%. The concentration of the test sample giving 50% inhibition (IC50) was then estimated.

Hanford miniature swine = assay: 12-week dermal toxicity study in miniature swine; assay type: in vivo
Description: A total of 40 Hanford miniature swine (20 male and 20 female) divided into four treatment groups were used for this study. A 12-week topical application of Galnobax 20% was carried out in the miniature swine wound healing model with twice-daily dosing. Six wounds (10 cm^2 each) of partial thickness were created on the dorsal region of all animals. Four wounds of each animal received twice-daily topical doses of either the vehicle or Galnobax gel, and the remaining two sites served as untreated comparative control wounds. Each group has four male and female miniature swine for the assessments and one each for the recovery period as given in Table 1 . Safety parameters in terms of ECG, clinical pathology, wound site evaluation, and toxicokinetics were performed during the study.

[5] = system: Ea.hy926 (human endothelial cells); assay: Scratch assay, endothelial cell migration under high glucose; assay type: cell-based
Description: as §1

bovine serum albumin = assay: Inhibition of advanced glycation end products (fluorometric, glucose + bovine serum albumin); assay type: biochemical; conditions: control mean 7.5
Description: Fluorescence was measured at the excitation wavelength of 360 nm and the emission wavelength of 440 nm. Afterwards, the samples were cooled to room temperature.

[6] = MTT cytotoxicity in HaCaT; assay type: cell-based, human; conditions: human, HaCaT cells, 48 h, read-out: % Cytotoxicity w.r.t. untreated cells
Description: as §2, §3, §4, §5, §6, §7, §8

HaCaT cells = assay: MTT cytotoxicity in HaCaT; assay type: cell-based, human; conditions: all tested concentrations (0.01 to 1000 μM), <30% = non-cytotoxic
Description: as §2, §3, §4, §5, §6, §7, §8

[7] = system: HaCaT (human keratinocytes); assay: Scratch assay, keratinocyte migration under high glucose; assay type: cell-based
Description: as §1

[8] = 1 and 10 µM, compared with control, high glucose
[9] = 100 and 500 µM compared with 1 and 10 µM

COC(=O)CCc1ccc(OCC(O)CNC(C)C)cc1 (stereo not shown) [Esmolol hydrochloride]
Cmax of the approved human dose [1]: 868–1,470 ng/ml | migration of fibroblasts [2, 8]: enhanced the migration | migration of fibroblasts [2, 9]: lower migration | cytotoxicity (Ea.hy926 cells): non-cytotoxic | cytotoxicity at 24 h, 0.01 µM ([3]; 0.01 μM): 5.84% | cytotoxicity at 24 h, 0.1 µM ([3]; 0.1 μM): 1.73% | cytotoxicity at 24 h, 1 µM ([3]; 1 μM): 11.4% | cytotoxicity at 24 h, 10 µM ([3]; 10 μM): 13.8% | cytotoxicity at 24 h, 50 µM ([3]; 50 μM): 3.85% | cytotoxicity at 24 h, 100 µM ([3]; 100 μM): 2.79% | cytotoxicity at 24 h, 500 µM ([3]; 500 μM): 17.5% | cytotoxicity at 24 h, 1000 µM ([3]; 1000 μM): 12.7% | IC50 [4]: 150 µM | local reactions at the injection sites (Hanford miniature swine; subcutaneously administered esmolol (30 mg/kg once or twice daily) plus topical Galnobax): moderate to severe local reactions | ovary weights (Hanford miniature swine; subcutaneously administered esmolol plus topical Galnobax, no histopathologic changes): reduction in absolute and relative ovary weights | migration of endothelial cells [5, 8]: enhanced the migration | migration of endothelial cells [5, 9]: lower migration | Fluorescence measurement, mean (bovine serum albumin; 500 µM): 5 | Fluorescence measurement, mean (bovine serum albumin; 1 mM): 2.6 | Fluorescence measurement, mean (bovine serum albumin; 1 mM, listed as esmolol): 2.6 ± 1.7 | cytotoxicity at 48 h, 0.01 µM ([6]; 0.01 μM): -19.2% | cytotoxicity at 48 h, 0.1 µM ([6]; 0.1 μM): -8.02% | cytotoxicity at 48 h, 1 µM ([6]; 1 μM): -6.93% | cytotoxicity at 48 h, 10 µM ([6]; 10 μM): -14.8% | cytotoxicity at 48 h, 50 µM ([6]; 50 μM): -18.1% | cytotoxicity at 48 h, 100 µM ([6]; 100 μM): -18.5% | cytotoxicity at 48 h, 500 µM ([6]; 500 μM): 16.2% | cytotoxicity at 48 h, 1000 µM ([6]; 1000 μM): 18.3% | cytotoxicity (HaCaT cells): non-cytotoxic | migration of keratinocytes [7, 8]: enhanced the migration | migration of keratinocytes [7, 9]: lower migration
